# How the values were obtained:
# Tubulin = Tubulin (Bos taurus, UniProt Q6B856+Q862L2+Q862F3); assay: Tubulin polymerization inhibitory activity using bovine brain tubulin; type: functional
# Colon 26 [1] = assay: In vitro cytotoxicity against colon 26 adenocarcinoma cell line was evaluated.; type: functional, cell-based; conditions: Mus musculus
# Colon 26 [2] = assay: […] activity evaluated as tumor suppression against colon 26 murine tumor model at a dose 40 mg/kg after intravenous administration; type: functional, Mus musculus
# Colon 26 [3] = assay: […] activity evaluated as tumor suppression against colon 26 murine tumor model at a dose 160 mg/kg after subcutaneous administration; type: functional, Mus musculus
# Colon 26 [4] = assay: […] activity evaluated as tumor suppression against colon 26 murine tumor model at a dose 20 mg/kg after intravenous administration; type: functional, Mus musculus
# Colon 26 [5] = assay: […] activity evaluated as tumor suppression against colon 26 murine tumor model at a dose 5 mg/kg after intravenous administration; type: functional, organism-based; design: dose 5 mg/kg; conditions: Mus musculus
# Colon 26 [6] = assay: […] activity evaluated as tumor suppression against colon 26 murine tumor model at a dose 80 mg/kg after intravenous administration; type: functional, Mus musculus
# Colon 26 [7] = assay: […] activity evaluated as tumor suppression against colon 26 murine tumor model at a dose 160 mg/kg after intravenous administration; type: functional, Mus musculus
Compound,IC50 (Tubulin),IC50 (Colon 26 [1]),further results
COc1ccc(-c2nnnn2-c2cc(OC)c(OC)c(OC)c2)cc1N,2 µM,0.0072 µM,IR (Colon 26 [3]): 89%
COc1ccc(-c2nnc(C)n2-c2cc(OC)c(OC)c(OC)c2)cc1N,> 10 µM,> 3 µM,
CISPLATIN,,,IR (Colon 26 [5]): 64%
COc1ccc(-c2c([Si](C)(C)C)n[nH]c2-c2cc(OC)c(OC)c(OC)c2)cc1N,> 10 µM,> 3 µM,
COc1ccc(-c2scnc2-c2cc(OC)c(OC)c(OC)c2)cc1N,3 µM,0.0145 µM,IR (Colon 26 [7]): 66%
COc1ccc(/C=C\c2cc(OC)c(OC)c(OC)c2)cc1N.Cl,,0.0028 µM,IR (Colon 26 [2]): 73%

# Second part, led by results:
IC50 (Tubulin),Compound,IC50 (Colon 26 [1]),further results
2 µM,COc1ccc(-c2sc(C)nc2-c2cc(OC)c(OC)c(OC)c2)cc1N,2.04 µM,IR (Colon 26 [2]): 24%
> 10 µM,COc1ccc(-c2nnc(N)n2-c2cc(OC)c(OC)c(OC)c2)cc1N,> 3 µM,
3 µM,COc1ccc(-c2c[nH]nc2-c2cc(OC)c(OC)c(OC)c2)cc1N,0.0084 µM,IR (Colon 26 [4]): 0%
1 µM,COc1ccc(-c2sc(N)nc2-c2cc(OC)c(OC)c(OC)c2)cc1N,0.0575 µM,IR (Colon 26 [2]): 75%
3 µM,COc1ccc(-c2sc(NN)nc2-c2cc(OC)c(OC)c(OC)c2)cc1N,0.0211 µM,IR (Colon 26 [6]): 55%
4 µM,COc1ccc(-c2nncn2-c2cc(OC)c(OC)c(OC)c2)cc1N,0.84 µM,IR (Colon 26 [7]): 47%
> 10 µM,COc1ccc(-c2nnc(O)n2-c2cc(OC)c(OC)c(OC)c2)cc1N,> 3 µM,

# Source: ChEMBL document CHEMBL1130664, “Syntheses and antitumor activity of cis-restricted combretastatins: 5-membered heterocyclic analogues” (Bioorg Med Chem Lett, 1998)
